Assay [1] relates to human fetal lung-derived normal fibroblast MRC-5 cells. Nature of the assay: Cytotoxicity test (MTT assay). Type of assay: cell-based. Particulars: for IC50: Homo sapiens, MRC5, 168 h, seven days culture, MTT assay, read-out: IC50 value MRC-5 cell; for Selectivity index (MRC-5 cytotoxicity IC50 / anti-trypanosoma IC50): (IC50 values for cytotoxicity)/(IC50 values for anti-trypanosoma activity). How it is done:
J. Antibiotics, 54: 658 to 663, (2001)]. That is, the human fetal lung-derived normal fibroblast MRC-5 cells [can be provided by Dr. […], Belgium)] were maintained and subcultured in the MEM-medium containing 10% bovine fetal serum (FCS) and antibiotics and were used as the host cell model. […] The presence or absence of the proliferation of the MRC-5 cells was measured by colorimetric quantification by the MTT assay. […] Also, the selectivity index (SI) was calculated as (IC50 values for cytotoxicity)/(IC50 values for anti-trypanosoma activity).

The test system of assay [2] is Trypanosoma brucei brucei GUTat 3.1 strain. Put plainly: In vitro inhibitory activity on trypanosoma protozoa proliferation (Alamar Blue). To be noted: for IC50: Trypanosoma brucei, 72 h, read-out: IC50 value Trypanosoma brucei brucei GUTat3.1 strain.
The subject of assay [3] is the microorganisms listed in Table 7. Put plainly: Antibacterial activity, paper disc method, overall statement. To be noted: summary in words. Type of assay: cell-based. How it is done:
The antibacterial activities of Mangromicins A, B and C of the present invention were measured by the following method. Filter paper discs (Advantec, a diameter of 6 mm) were impregnated with 10 μL of 1 mg/mL solutions of Mangromicins A, B and C in methanol, and air-dried for a certain period of time to remove the solvent. Subsequently, the discs were placed on agar plates each containing the test bacteria shown in Table 7, followed by culturing at 35° C. for 24 hours. The diameter of the growth inhibiting zones formed around the paper discs was measured.

The subject of assay [4] is Bacillus subtilis ATCC6633. Put plainly: Antibacterial activity, paper disc method. Type of assay: cell-based. Particulars: 6 mm disc, 10 μL of 1 mg/mL, 35° C., 24 hours, read-out: the diameter of inhibiton zones.

Values after ≈ are worked out from the molar mass of the structure shown.

For `NCCCC(N)(C(=O)O)C(F)F` (centres unmarked) [Eflornithine, eflornithine, reference compound], the IC50 in assay [1] is > 100 µg/mL; in assay [2], 2.27 µg/mL (≈ 12.5 µM).
As to `CCCC1C(O)=C2CCC3(C)CC(C)C(O3)C(O)C(O)C(C)C(=O)CC1OC2=O` (centres unmarked) [Mangromicin A], the “Selectivity index (MRC-5 cytotoxicity IC50 / anti-trypanosoma IC50)” value in assay [1] came out at 6.6. Moreover, the results for the IC50 in assay [1] and in assay [2] were 16 µg/mL (≈ 39 µM) and 2.44 µg/mL (≈ 5.94 µM), respectively. Moreover, the “antibacterial activities on the microorganisms listed in Table 7” value in assay [3] was “almost no antibacterial activities”. The “anti-trypanosoma activity compared to suramin and eflornithine” value in assay [2] (T.b.b. GUTat 3.1 strain, relative to suramin and eflornithine) is “equivalent or slightly inferior”.
Turning to `Cc1ccc(C(=O)Nc2ccc(S(=O)(=O)O)c3cc(S(=O)(=O)O)cc(S(=O)(=O)O)c23)cc1NC(=O)c1cccc(NC(=O)Nc2cccc(C(=O)Nc3cc(C(=O)Nc4ccc(S(=O)(=O)O)c5cc(S(=O)(=O)O)cc(S(=O)(=O)O)c45)ccc3C)c2)c1` [Suramin, suramin, reference compound], the IC50 was > 100 µg/mL in assay [1] and 1.58 µg/mL (≈ 1.22 µM) in assay [2].
Consider `CCCC1C(O)=C2CCC3(C)CC(C)C(O3)C(O)/C=C(\C)C(=O)CC1OC2=O` (centres unmarked) [Mangromicin B], for which, in assay [1], the “Selectivity index (MRC-5 cytotoxicity IC50 / anti-trypanosoma IC50)” value was determined as 2.1 and the half-maximal inhibitory concentration (IC50) was 92.6 µg/mL (≈ 236 µM). Further, the zone of inhibition at 1000 µg/mL in assay [4] was found to be 7 mm. In addition, the “antibacterial activities on the microorganisms listed in Table 7” value in assay [3] is listed as “almost no antibacterial activities”. In addition, the IC50 in assay [2] was 43.4 µg/mL (≈ 111 µM).

The record behind these values is patent US9000194B2, “Mangromicin compound and production method therefor” (The Kitasato Institute, priority 2011, dated 2015).
